Key:
[1] = clinically used commercial T1 contrast agents, comparison values; cited from earlier work
[2] = Contrast-enhanced dynamic MRI in mice (CNR in liver and blood); format: in vivo, Balb/C mice; conditions: i.v. injection, 4.7 T
Procedure: The whole-body pharmacokinetics of T1 contrast agents can be measured by dynamic 2D or 3D MR imaging.
5-Week-old male Balb/C mice (n=3; OrientBio, Korea) were used for contrast-enhanced dynamic MRI. MRI was performed by using a 4.7 T MRI system (BioSpec 47/40; Bruker, Germany) with a quadrature birdcage RF coil (35 mm inner diameter) for signal transmission and reception.
Bolus of the contrast agents (0.1 mmol Gd/kg) was injected via tail vein. During MRI acquisition, the animals were anesthetized using 1-1.25% of inhalational isoflurane with O2:N2O (3:7) mixture.
To quantitatively measure signal intensity in region-of-interests (ROIs) as contrast-noise ratio (CNR), a reference of water sample (1 g/l CuSO4 in 8:2 of D2O:H2O) in a cylindrical tube (5 mm diameter) was used.
Dynamic 2D T1-weighted images were acquired using a spin-echo (SE) pulse sequence with the following parameters: TE/TR=10/400 ms, number of average=4, matrix size=256×256, slice thickness=1 mm, field of view=30×30 mm^2 (in axial slice) or 50×30 mm^2 (in coronal slice), and scan time=6 min 50 s).
Dynamic 3D T1-weighted images were acquired using a fast low angle shot gradient echo (FLASH) pulse sequence with parameters of TE/TR=2.4/7.5 ms, number of average=4, flip angle=30°, field of view=30×30×20 mm^3, matrix size=256×256×128, and scan time=12 min 17 s.

[3] = Relaxivity measurements (r1, r2) in PBS solution; format: physicochemical; conditions: PBS solution, 36° C.
Procedure: Longitudinal and transverse relaxivities, r1 and r2, were measured at 20 MHz (0.47 T) and 60 MHz (1.41 T) at 36° C. on NMR (mq20 and mq60, Bruker, Germany) and animal MRI (Biospec 47/40, Bruker, Germany) systems. T1 and T2 relaxation times were measured with inversion recovery and spin-echo pulse sequences, respectively.
The relaxation efficiency of the newly synthesized amphiphilic MRI contrast agents according to the present invention was determined by measuring longitudinal relaxivity (r1) and transverse relaxivity (r2) at 20 MHZ (0.47 T) and 60 MHz (1.41 T) in phosphate buffered saline (PBS) solution at 36° C.

Compound: CNC(=O)CN(CCN(CCN(CC(=O)[O-])CC(=O)NC)CC(=O)[O-])CC(=O)[O-].[Gd+3] [Omniscan ®, Gd-DTPA-BMA, reference compound]
- Relaxivity retained after transmetallation (commercial contrast agents) [1]: 10%
- Peak CNR in liver [2]: about 2.8
- Relaxivity r1 ([3]; 20 MHz (0.47 T)): 4.41 mM⁻¹ s⁻¹
- Relaxivity r1 ([3]; 60 MHz (1.41 T)): 3.68 mM⁻¹ s⁻¹
